{"source": "patent US20230407243A1", "about": "“GENETIC PLATFORM TO INVESTIGATE THE FUNCTIONS OF BACTERIAL DRUG EFFLUX PUMPS” (priority 2022, published 2023)", "type_in_all_cases": "cell-based, Escherichia coli", "key": {"E. coli EKO-35": {"system": "E. coli EKO-35", "assay": "microbe, parasite or virus in culture", "conditions": "for MIC: Escherichia coli, EKO35, technical duplicate", "procedure,_shortened": "(§1)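 MHB II broth microdilution; inoculum from 18 h LB culture, PBS-adjusted to OD600 ~1.0, then 1/2000 dilution. Compounds 2-fold titrated, duplicates, DMSO solvent control. 18 h, 37 °C, 900 rpm; background-corrected OD600 end point.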"}, "E. coli ΔtolC": {"system": "E. coli ΔtolC", "assay": "microbe, parasite or virus in culture", "procedure,_shortened": "as §1"}, "[1]": {"system": "wild-type E. coli K-12 str. BW25113", "assay": "microbe, parasite or virus in culture", "conditions": "Escherichia coli, BW25113, technical duplicate", "procedure,_shortened": "as §1"}, "EKO-35 araC::acrBD408A": {"system": "EKO-35 araC::acrBD408A", "assay": "MIC susceptibility profiling, efflux platform", "procedure,_shortened": "as §1"}, "EKO-35 araC::acrB": {"system": "EKO-35 araC::acrB", "assay": "MIC susceptibility profiling, efflux platform", "conditions": "EKO-35 araC::acrB compared to EKO-35", "procedure,_shortened": "as §1"}, "EKO-35 araC::acrD": {"system": "EKO-35 araC::acrD", "assay": "MIC susceptibility profiling, efflux platform", "procedure,_shortened": "as §1"}, "EKO-35 araC::acrEF": {"system": "EKO-35 araC::acrEF", "assay": "MIC susceptibility profiling, efflux platform", "procedure,_shortened": "as §1"}, "EKO-35 araC::emrAB": {"system": "EKO-35 araC::emrAB", "assay": "MIC susceptibility profiling, efflux platform", "procedure,_shortened": "as §1"}, "EKO-35 araC::emrKY": {"system": "EKO-35 araC::emrKY", "assay": "MIC susceptibility profiling, efflux platform", "procedure,_shortened": "as §1"}, "EKO-35 araC::macAB": {"system": "EKO-35 araC::macAB", "assay": "MIC susceptibility profiling, efflux platform", "procedure,_shortened": "as §1"}, "EKO-35 araC::mdtBC": {"system": "EKO-35 araC::mdtBC", "assay": "MIC susceptibility profiling, efflux platform", "procedure,_shortened": "as §1"}, "EKO-35 araC::mdtEF": {"system": "EKO-35 araC::mdtEF", "assay": "MIC susceptibility profiling, efflux platform", "procedure,_shortened": "as §1"}, "[2]": {"system": "EKO-35 araC::mexCD (MexCD from P. aeruginosa)", "assay": "MIC susceptibility profiling, efflux platform", "procedure,_shortened": "as §1"}, "wild-type (WT) K-12-Pore": {"system": "wild-type (WT) K-12-Pore", "assay": "microbe, parasite or virus in culture", "conditions": "Escherichia coli, technical duplicate", "procedure,_shortened": "(§2)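 E. coli strains carrying a genomically integrated constitutive fhuA ΔC/Δ4L pore were grown 18 h in LB at 37 °C, then diluted 1/2000 in MHB II from OD600 ~1.0. Compounds were tested in duplicate, 2-fold serial titration, for 18 h at 37 °C with shaking. MIC came from OD600 with the pre-incubation background subtracted.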"}, "ΔtolC-Pore": {"system": "ΔtolC-Pore", "assay": "microbe, parasite or virus in culture", "procedure,_shortened": "as §2"}, "EKO-35 araC::acrEF Pore": {"system": "EKO-35 araC::acrEF Pore", "assay": "MIC susceptibility profiling, porinated efflux platform", "procedure,_shortened": "as §2"}, "EKO-35 araC::emrKY Pore": {"system": "EKO-35 araC::emrKY Pore", "assay": "MIC susceptibility profiling, porinated efflux platform", "procedure,_shortened": "as §2"}, "EKO-35 araC::macAB Pore": {"system": "EKO-35 araC::macAB Pore", "assay": "MIC susceptibility profiling, porinated efflux platform", "procedure,_shortened": "as §2"}, "EKO-35 araC::mdtEF Pore": {"system": "EKO-35 araC::mdtEF Pore", "assay": "MIC susceptibility profiling, porinated efflux platform", "procedure,_shortened": "as §2"}}, "note": "Like-named read-outs stand apart in the source and are kept apart here.", "data": [{"smiles": "CN(C)[C@@H]1C(O)=C(C(N)=O)C(=O)[C@@]2(O)C(O)=C3C(=O)c4c(O)cccc4[C@@](C)(O)[C@H]3C[C@@H]12", "note": "[tetracycline]", "values": [{"measurement": "Fold change of MICs", "setting": "E. coli EKO-35; EKO-35 compared to EKO-35 (reference)", "value": 1, "unit": "fold"}, {"measurement": "MIC", "setting": "E. coli EKO-35; Table 10, without pore, read-out: Minimum inhibitory concentration (MIC), EKO-35", "value": 0.195, "unit": "µg/mL"}, {"measurement": "MIC", "setting": "E. coli EKO-35; Table 13A, non-porinated, read-out: Minimum Inhibitory Concentration, EKO-35", "value": 0.195, "unit": "µg/mL"}, {"measurement": "MIC", "setting": "E. coli ΔtolC; Escherichia coli, 18 h, read-out: Minimum Inhibitory Concentration, ΔtolC", "value": 0.391, "unit": "µg/mL"}, {"measurement": "Minimum inhibitory concentration (MIC), ΔtolC", "setting": "E. coli ΔtolC; Table 10, without pore, technical duplicate", "value": 0.391, "unit": "µg/mL"}, {"measurement": "MIC", "setting": "[1]; Table 10, without pore, read-out: Minimum inhibitory concentration (MIC), K-12", "value": 1.56, "unit": "µg/mL"}, {"measurement": "MIC", "setting": "[1]; Table 13A, non-porinated, read-out: Minimum Inhibitory Concentration, K-12", "value": 1.56, "unit": "µg/mL"}, {"measurement": "Fold change of MICs", "setting": "EKO-35 araC::acrBD408A; EKO-35 araC::acrBD408A compared to EKO-35", "value": 1, "unit": "fold"}, {"measurement": "MIC", "setting": "EKO-35 araC::acrBD408A; Escherichia coli, Table 13B, non-porinated, technical duplicate, read-out: Minimum Inhibitory Concentration, EKO-35 araC::acrBD408A", "value": 0.195, "unit": "µg/mL"}, {"measurement": "Fold change of MICs", "setting": "EKO-35 araC::acrB", "value": 4, "unit": "fold"}, {"measurement": "Fold change of MICs", "setting": "EKO-35 araC::acrD; EKO-35 araC::acrD compared to EKO-35", "value": 1, "unit": "fold"}, {"measurement": "MIC", "setting": "EKO-35 araC::acrD; Escherichia coli, Table 13A, non-porinated, technical duplicate, read-out: Minimum Inhibitory Concentration, EKO-35 araC::acrD", "value": 0.195, "unit": "µg/mL"}, {"measurement": "Fold change of MICs", "setting": "EKO-35 araC::acrEF; EKO-35 araC::acrEF compared to EKO-35", "value": 1, "unit": "fold"}, {"measurement": "MIC", "setting": "EKO-35 araC::acrEF; Escherichia coli, Table 13A, non-porinated, technical duplicate, read-out: Minimum Inhibitory Concentration, EKO-35 araC::acrEF", "value": 0.195, "unit": "µg/mL"}, {"measurement": "Fold change of MICs", "setting": "EKO-35 araC::emrAB; EKO-35 araC::emrAB compared to EKO-35", "value": 1, "unit": "fold"}, {"measurement": "MIC", "setting": "EKO-35 araC::emrAB; Escherichia coli, Table 13B, non-porinated, technical duplicate, read-out: Minimum Inhibitory Concentration, EKO-35 araC::emrAB", "value": 0.195, "unit": "µg/mL"}, {"measurement": "Fold change of MICs", "setting": "EKO-35 araC::emrKY; EKO-35 araC::emrKY compared to EKO-35", "value": 1, "unit": "fold"}, {"measurement": "MIC", "setting": "EKO-35 araC::emrKY; Escherichia coli, Table 13B, non-porinated, technical duplicate, read-out: Minimum Inhibitory Concentration, EKO-35 araC::emrKY", "value": 0.195, "unit": "µg/mL"}, {"measurement": "Fold change of MICs", "setting": "EKO-35 araC::macAB; EKO-35 araC::macAB compared to EKO-35", "value": 1, "unit": "fold"}, {"measurement": "MIC", "setting": "EKO-35 araC::macAB; Escherichia coli, Table 13B, non-porinated, technical duplicate, read-out: Minimum Inhibitory Concentration, EKO-35 araC::macAB", "value": 0.195, "unit": "µg/mL"}, {"measurement": "Fold change of MICs", "setting": "EKO-35 araC::mdtBC; EKO-35 araC::mdtBC compared to EKO-35", "value": 1, "unit": "fold"}, {"measurement": "MIC", "setting": "EKO-35 araC::mdtBC; Escherichia coli, Table 13B, non-porinated, technical duplicate, read-out: Minimum Inhibitory Concentration, EKO-35 araC::mdtBC", "value": 0.195, "unit": "µg/mL"}, {"measurement": "Fold change of MICs", "setting": "EKO-35 araC::mdtEF; EKO-35 araC::mdtEF compared to EKO-35", "value": 1, "unit": "fold"}, {"measurement": "MIC", "setting": "EKO-35 araC::mdtEF; Escherichia coli, Table 13A, non-porinated, technical duplicate, read-out: Minimum Inhibitory Concentration, EKO-35 araC::mdtEF", "value": 0.195, "unit": "µg/mL"}, {"measurement": "Fold change of MICs", "setting": "[2]; EKO-35 araC::mexCD compared to EKO-35", "value": 1, "unit": "fold"}, {"measurement": "MIC", "setting": "[2]; Table 13B, non-porinated, technical duplicate, read-out: Minimum Inhibitory Concentration, EKO-35 araC::mexCD", "value": 0.195, "unit": "µg/mL"}, {"measurement": "MIC", "setting": "wild-type (WT) K-12-Pore; Table 10, with pore, read-out: Minimum inhibitory concentration (MIC), Pore K-12", "value": 0.781, "unit": "µg/mL"}, {"measurement": "MIC", "setting": "wild-type (WT) K-12-Pore; Table 14A, porinated, read-out: Minimum inhibitory concentration, K-12 (WT)-Pore", "value": 0.781, "unit": "µg/mL"}, {"measurement": "MIC", "setting": "ΔtolC-Pore; Escherichia coli, 18 h, read-out: Minimum inhibitory concentration, ΔtolC-Pore", "value": 0.391, "unit": "µg/mL"}, {"measurement": "Minimum inhibitory concentration (MIC), Pore ΔtolC", "setting": "ΔtolC-Pore; Table 10, with pore, technical duplicate", "value": 0.391, "unit": "µg/mL"}, {"measurement": "Fold changes of MICs", "setting": "EKO-35 araC::acrEF Pore; EKO-35 araC::acrEF Pore compared to EKO-35-Pore", "value": 1, "unit": "fold"}, {"measurement": "MIC", "setting": "EKO-35 araC::acrEF Pore; Escherichia coli, Table 14A, porinated, technical duplicate, read-out: Minimum inhibitory concentration, EKO-35 araC::acrEF Pore", "value": 0.195, "unit": "µg/mL"}, {"measurement": "Fold changes of MICs", "setting": "EKO-35 araC::emrKY Pore; EKO-35 araC::emrKY Pore compared to EKO-35-Pore", "value": 1, "unit": "fold"}, {"measurement": "MIC", "setting": "EKO-35 araC::emrKY Pore; Escherichia coli, EKO-35 araC::emrKY Pore, technical duplicate, read-out: Minimum inhibitory concentration", "value": 0.195, "unit": "µg/mL"}, {"measurement": "Fold changes of MICs", "setting": "EKO-35 araC::macAB Pore; EKO-35 araC::macAB Pore compared to EKO-35-Pore", "value": 1, "unit": "fold"}, {"measurement": "MIC", "setting": "EKO-35 araC::macAB Pore; Escherichia coli, EKO-35 araC::macAB Pore, technical duplicate, read-out: Minimum inhibitory concentration", "value": 0.195, "unit": "µg/mL"}, {"measurement": "Fold changes of MICs", "setting": "EKO-35 araC::mdtEF Pore; EKO-35 araC::mdtEF Pore compared to EKO-35-Pore", "value": 1, "unit": "fold"}, {"measurement": "MIC", "setting": "EKO-35 araC::mdtEF Pore; Escherichia coli, Table 14A, porinated, technical duplicate, read-out: Minimum inhibitory concentration, EKO-35 araC::mdtEF Pore", "value": 0.195, "unit": "µg/mL"}]}]}
